Experimental data from patent US20170304388A1, “NEW INDICATION OF CARDIOVASCULAR DRUGS FOR PREPARATION OF CANCER INHIBITION PHARMACEUTICAL COMPOSITION” (LAUNX BIOMEDICAL CO., LTD., priority 2014, published 2017).

Key:
Format in all cases: cell-based
[1] = system: MKN-45 (Gastric Adenocarcinoma); assay: Cell viability analysis (WST-1), MKN-45; conditions: Table 4, repeated experiments, drug 10 μM; for viability at 10 µM: Homo sapiens, MKN-45, 72 h, WST-1, read-out: survival rate (viability) of cancer cells, MKN-45
[2] = system: 786-O; assay: Cell viability analysis (WST-1), 786-O; conditions: Table 4, repeated experiments, drug 10 μM; for viability at 10 µM: Homo sapiens, 786-0, 72 h, read-out: survival rate (viability) of cancer cells, 786-O
Method in brief: (§1)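 3000 cells/well; drug 10 μM, 72 h; diluted WST-1 (medium:stock 9:1), 37° C, 30–90 min; OD450 nm read, survival rate calculated.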

[3] = system: AGS (Gastric Adenocarcinoma); assay: Cell viability analysis (WST-1), AGS; conditions: Table 4, repeated experiments, drug 10 μM; for viability at 10 µM: 72 h, WST-1, read-out: survival rate (viability) of cancer cells, AGS
[4] = system: PC3 (Prostate Adenocarcinoma); assay: Cell viability analysis (WST-1), PC3; conditions: Table 4, repeated experiments, drug 10 μM; for viability at 10 µM: 72 h, WST-1, read-out: survival rate (viability) of cancer cells, PC-3
[5] = system: HCT116 (Colorectal Carcinoma); assay: Cell viability analysis (WST-1), HCT116; conditions: Table 4, repeated experiments, drug 10 μM; for viability at 10 µM: Homo sapiens, HCT-116, 72 h, WST-1, read-out: survival rate (viability) of cancer cells, HCT116
[6] = system: TOV-21G; assay: Cell viability analysis (WST-1), TOV-21G; conditions: Table 4, repeated experiments, drug 10 μM; for viability at 10 µM: Homo sapiens, TOV21G, 72 h, read-out: survival rate (viability) of cancer cells, TOV-21G
Method in brief: as §1

[7] = system: SAS; assay: Cell viability analysis (WST-1), SAS; conditions: Table 4, repeated experiments, drug 10 μM; for viability at 10 µM: 72 h, read-out: survival rate (viability) of cancer cells, SAS
Method in brief: as §1

[8] = system: AsPC-1; assay: Cell viability analysis (WST-1), AsPC-1; conditions: Table 4, repeated experiments, drug 10 μM; for viability at 10 µM: Homo sapiens, ASPC1, 72 h, read-out: survival rate (viability) of cancer cells, AsPC-1
Method in brief: as §1

[9] = system: H1650 (Lung Adenocarcinoma); assay: Cell viability analysis (WST-1), H1650; conditions: Table 4, repeated experiments, drug 10 μM; for viability at 10 µM: Homo sapiens, NCI-H1650, 72 h, WST-1, read-out: survival rate (viability) of cancer cells, H1650
[10] = system: MCF7 (Mammary Gland, Adenocarcinoma); assay: Cell viability analysis (WST-1), MCF7; conditions: Table 4, repeated experiments, drug 10 μM; for viability at 10 µM: Homo sapiens, MCF7, 72 h, WST-1, read-out: survival rate (viability) of cancer cells, MCF-7
[11] = system: cancer cell lines; assay: Growth inhibitory effects on the panel of cancer cell lines; conditions: drug 10 μM, 72 hours, WST-1
[12] = system: NIH-OVCAR-3; assay: Cell viability analysis (WST-1), NIH-OVCAR-3; conditions: Table 4, repeated experiments, drug 10 μM; for viability at 10 µM: Homo sapiens, OVCAR-3, 72 h, read-out: survival rate (viability) of cancer cells, NIH-OVCAR-3
Method in brief: as §1

[13] = system: T24; assay: Cell viability analysis (WST-1), T24; conditions: Table 4, repeated experiments, drug 10 μM; for viability at 10 µM: Homo sapiens, T-24, 72 h, read-out: survival rate (viability) of cancer cells, T24
Method in brief: as §1

[14] = system: A549 (Lung Adenocarcinoma); assay: Cell viability analysis (WST-1), A549; conditions: Table 4, repeated experiments, drug 10 μM; for viability at 10 µM: Homo sapiens, A549, 72 h, WST-1, read-out: survival rate (viability) of cancer cells, A549
[15] = system: BCC; assay: Cell viability analysis (WST-1), BCC; conditions: Table 4, repeated experiments, drug 10 μM; for viability at 10 µM: BCC, 72 h, read-out: survival rate (viability) of cancer cells, BCC
[16] = system: Hep3B; assay: Cell viability analysis (WST-1), Hep3B; conditions: Table 4, repeated experiments, drug 10 μM; for viability at 10 µM: Homo sapiens, Hep3B, 72 h, read-out: survival rate (viability) of cancer cells, Hep3B
Method in brief: as §1

[17] = system: A375 (Amelanotic Melanoma); assay: Cell viability analysis (WST-1), A375; conditions: Table 4, repeated experiments, drug 10 μM; for viability at 10 µM: Homo sapiens, A-375, 72 h, WST-1, read-out: survival rate (viability) of cancer cells, A375
[18] = system: U2OS; assay: Cell viability analysis (WST-1), U2OS; conditions: Table 4, repeated experiments, drug 10 μM; for viability at 10 µM: Homo sapiens, U2OS, 72 h, read-out: survival rate (viability) of cancer cells, U2OS
Method in brief: as §1

[19] = system: C-33A; assay: Cell viability analysis (WST-1), C-33A; conditions: Table 4, repeated experiments, drug 10 μM; for viability at 10 µM: Homo sapiens, C-33-A, 72 h, read-out: survival rate (viability) of cancer cells, C-33A
Method in brief: as §1

[20] = system: HeLa (Cervix Adenocarcinoma); assay: Cell viability analysis (WST-1), HeLa; conditions: Table 4, repeated experiments, drug 10 μM; for viability at 10 µM: Homo sapiens, HeLa, 72 h, WST-1, read-out: survival rate (viability) of cancer cells, HeLa
[21] = system: HepG2 (Hepatocellular Carcinoma); assay: Cell viability analysis (WST-1), HepG2; conditions: Table 4, repeated experiments, drug 10 μM; for viability at 10 µM: Homo sapiens, HepG2, 72 h, WST-1, read-out: survival rate (viability) of cancer cells, HepG2
[22] = system: BxPC-3; assay: Cell viability analysis (WST-1), BxPC-3; conditions: Table 4, repeated experiments, drug 10 μM; for viability at 10 µM: Homo sapiens, BXPC-3, 72 h, read-out: survival rate (viability) of cancer cells, BxPC-3
Method in brief: as §1

[23] = system: TSGH-8301 (Urinary Bladder Carcinoma); assay: Cell viability analysis (WST-1), TSGH-8301; conditions: Table 4, repeated experiments, drug 10 μM; for viability at 10 µM: 72 h, WST-1, read-out: survival rate (viability) of cancer cells, TSGH-8301
[24] = system: LoVo (Colorectal Adenocarcinoma); assay: Cell viability analysis (WST-1), LoVo; conditions: Table 4, repeated experiments, drug 10 μM; for viability at 10 µM: Homo sapiens, LoVo, 72 h, WST-1, read-out: survival rate (viability) of cancer cells, LoVo
[25] = system: MDA-MB231; assay: Cell viability analysis (WST-1), MDA-MB231; conditions: Table 4, repeated experiments, drug 10 μM; for viability at 10 µM: Homo sapiens, MDA-MB-231, 72 h, read-out: survival rate (viability) of cancer cells, MDA-MB231

CCC[C@H](N[C@@H](C)C(=O)N1[C@H](C(=O)O)C[C@@H]2CCCC[C@@H]21)C(=O)OCC [Perindopril Erbumine (Aceon), Perindopril Erbumine]
viability at 10 µM [1]: 73.8% | viability at 10 µM [2]: 86.2% | viability at 10 µM [3]: 87.1% | viability at 10 µM [4]: 81.1% | viability at 10 µM [5]: 65% | viability at 10 µM [6]: 71.2% | viability at 10 µM [7]: 52.5% | viability at 10 µM [8]: 64.2% | viability at 10 µM [9]: 78.6% | viability at 10 µM [10]: 75.6% | inhibition effect on different cancer cell lines (in words) [11]: significant inhibition effect | viability at 10 µM [12]: 79.6% | viability at 10 µM [13]: 87.9% | viability at 10 µM [14]: 71.9% | viability at 10 µM [15]: 58.7% | viability at 10 µM [16]: 99.5% | viability at 10 µM [17]: 83.2% | viability at 10 µM [18]: 74% | viability at 10 µM [19]: 90.9% | viability at 10 µM [20]: 66.7% | viability at 10 µM [21]: 99.4% | viability at 10 µM [22]: 50% | viability at 10 µM [23]: 105% | viability at 10 µM [24]: 83.5% | viability at 10 µM [25]: 63.8%

COc1ccc(-c2nc3ccc(C4=NNC(=O)CC4C)cc3[nH]2)cc1 (stereo not drawn) [Pimobendan (Vetmedin), Pimobendan]
viability at 10 µM [1]: 65.2% | viability at 10 µM [2]: 39.6% | viability at 10 µM [3]: 60.8% | viability at 10 µM [4]: 69.5% | viability at 10 µM [5]: 53.6% | viability at 10 µM [6]: 70.7% | viability at 10 µM [7]: 51.1% | viability at 10 µM [8]: 69.3% | viability at 10 µM [9]: 77.8% | viability at 10 µM [10]: 53.9% | inhibition effect on different cancer cell lines (in words) [11]: significant inhibition effect | viability at 10 µM [12]: 74.7% | viability at 10 µM [13]: 74.2% | viability at 10 µM [14]: 58.3% | viability at 10 µM [15]: 49.6% | viability at 10 µM [16]: 94.8% | viability at 10 µM [17]: 44.4% | viability at 10 µM [18]: 56.6% | viability at 10 µM [19]: 62.8% | viability at 10 µM [20]: 34% | viability at 10 µM [21]: 87.2% | viability at 10 µM [22]: 51.9% | viability at 10 µM [23]: 59.4% | viability at 10 µM [24]: 66.7% | viability at 10 µM [25]: 75%

O=C([O-])C[C@H](O)C[C@H](O)/C=C/c1c(C2CC2)nc2ccccc2c1-c1ccc(F)cc1.O=C([O-])C[C@H](O)C[C@H](O)/C=C/c1c(C2CC2)nc2ccccc2c1-c1ccc(F)cc1.[Ca+2] [Pitavastatin calcium (Livalo), Pitavastatin calcium]
survival rate (viability) of cancer cells, MKN-45 ([1]; 72 hours, WST-1): 61.3 | survival rate (viability) of cancer cells, 786-O ([2]; 72 hours): 16.46 | survival rate (viability) of cancer cells, AGS ([3]; 72 hours, WST-1): 19.17 | survival rate (viability) of cancer cells, PC-3 ([4]; 72 hours, WST-1): 27.54 | survival rate (viability) of cancer cells, HCT116 ([5]; 72 hours, WST-1): 35.07 | survival rate (viability) of cancer cells, TOV-21G ([6]; 72 hours): 21.79 | survival rate (viability) of cancer cells, SAS ([7]; 72 hours): 38.0374 | survival rate (viability) of cancer cells, AsPC-1 ([8]; 72 hours): 51.36 | survival rate (viability) of cancer cells, H1650 ([9]; 72 hours, WST-1): 49.9822 | survival rate (viability) of cancer cells, MCF-7 ([10]; 72 hours, WST-1): 83.57 | inhibition effect on different cancer cell lines (in words) [11]: significant inhibition effect | survival rate (viability) of cancer cells, NIH-OVCAR-3 ([12]; 72 hours): 61.41 | survival rate (viability) of cancer cells, T24 ([13]; 72 hours): 52.63 | survival rate (viability) of cancer cells, A549 ([14]; 72 hours, WST-1): 89.44 | survival rate (viability) of cancer cells, BCC ([15]; 72 hours): 26.77 | survival rate (viability) of cancer cells, Hep3B ([16]; 72 hours): 96.34 | survival rate (viability) of cancer cells, A375 ([17]; 72 hours, WST-1): 22.09 | survival rate (viability) of cancer cells, U2OS ([18]; 72 hours): 43.44 | survival rate (viability) of cancer cells, C-33A ([19]; 72 hours): 74.75 | survival rate (viability) of cancer cells, HeLa ([20]; 72 hours, WST-1): 36.91 | survival rate (viability) of cancer cells, HepG2 ([21]; 72 hours, WST-1): 98.06 | survival rate (viability) of cancer cells, BxPC-3 ([22]; 72 hours): 59.78 | survival rate (viability) of cancer cells, TSGH-8301 ([23]; 72 hours, WST-1): 48.92 | survival rate (viability) of cancer cells, LoVo ([24]; 72 hours, WST-1): 65.15 | survival rate (viability) of cancer cells, MDA-MB231 ([25]; 72 hours): 39.0358
